# US12618847B2 (Purdue Research Foundation, priority 2020, dated 2026)
# pIC50: −log10 of the molar value. Entries after “also recorded” stand apart in the source; their conditions may differ. Read-outs that look alike come from different tables or passages of the source. *1 amine or outer side, *2 acyl side, *3 side chain or, on linkers, in order; H or OH if unused. Where a SMILES comes first, the peptide text is derived from it. Where no end group is shown, it is not given here. [ ]: non-standard residue; d: D form. The star is where a group is joined. Phe(4-NO2) = N[C@@H](Cc1ccc([N+](=O)[O-])cc1)C(=O)O; Phe(4-Cl) = N[C@@H](Cc1ccc(Cl)cc1)C(=O)O; 2Thi = N[C@@H](Cc1cccs1)C(=O)O; AMC = Cc1cc(=O)oc2cc(N*)ccc12; Suc = O=C(CCC(=O)[*:2])[*:1]; Nva = CCC[C@H](N)C(=O)O; Cbz = O=C(OCc1ccccc1)*
# Tests used:
# 20S CP [1] = molecular target: T1, 20S CP (Homo sapiens, UniProt P20618+P28074); test: LC/MS assay of peptide library as 20S CP substrates; format: biochemical; details: 12 μM peptide, 9 nM 20S CP, 37° C., one hour
# Method: To evaluate this set of peptides as potential 20S CP substrates, we applied a similar LC/MS-based assay to that used to discover the immunoproteasome probe. Briefly, the peptides were dissolved in DMSO at a stock concentration of 600 μM. The peptides were then diluted in 50 mM tris buffer, pH 7.4, in a 96-well plate for a final assay concentration of 12 μM in two sets of triplicates. One set of triplicates served as a negative control, incubated in tris buffer alone. For analysis, this would correspond to the ionization intensity of completely intact samples, which can then be compared to the amount of intact peptide remaining in 20S CP-treated samples. To the other triplicate was added 20S CP to a final concentration of 9 nM. All samples were incubated at 37° C. for one hour before an equal volume of acetonitrile was added to halt degradation by denaturing the 20S CP. Samples were dried, resuspended in 50/50 water/acetonitrile with 0.1% formic acid and analyzed by LC/MS (example spectra can be found in Supporting Information Appendix B).
# For each peptide, the mass of the full (uncleaved) structure was extracted (extracted ion chromatogram, EIC) from each sample and this peak was integrated to obtain the peak area. The peak areas for the negative control samples of individual structures were averaged and set to 1. Peak areas for 20S CP-treated samples were then scaled to the average for the untreated sample and the triplicates averaged to obtain a value for the fraction of full peptide remaining (FIG. 4). To confirm that the peptide was being cleaved at the desired position, the mass of the corresponding 4mer-peptide cleavage product was found in each 20S CP-treated sample with significant decrease in full peptide observed.
# A549 cells = test: Probe cleavage in live A549 cells with or without MG-132 pretreatment; format: cell-based; details: MG-132 10 μM pre-incubated one hour, each TAS probe at 10 μM
# Method: We next sought to determine if the TAS probes would be suitable for cell-based assays. To accomplish this, A549 cells were plated at a density of 5,000 cells/well in a black 96 well plate with a black bottom. After allowing the cells to adhere to the plate, the samples were washed with PBS three times then dosed with 10 μM of each probe in modified KRBH buffer. The change in fluorescence was recorded on a microplate reader for 90 min. After allowing the signal to equilibrate for […], each sample was set to zero and the future time points were scaled accordingly. As was done with the biochemical data, a linear regression was fit to each set of data. From the slope, it is observed that the rate for TAS2 was the highest. To determine the in-cell selectivity, a set of samples pretreated with MG-132 (10 μM), a proteasome inhibitor, was included for each probe. These samples were pre-incubated with MG-132 in cell culture media for one hour before washing with PBS and dosing with each probe in modified KRBH buffer. […] To ensure this decrease was not a consequence of cell death, cells were treated in the same way and analyzed using Cell-Titer Glo.
# MM.1R = test: Cell viability by Cell-Titer Glo; format: cell-based; details: 48 hours
# Method: (§1) We also sought to correlate this proteasome activity trend with susceptibility to a proteasome inhibitor by determining the IC50 values of MG-132 with these six cells. Cells were dosed for 48 hours with increase concentrations of MG-132 then analyzed using Cell-Titer Glo to determine cell viability. […] Considering this, we still believe comparing cell lines for proteasome activity based on fluorescence with TAS2 would still provide insight to the relative dependency of various cancer cell lines on proteasome activity.
# [2] = system: A498, SK-MEL-2, MEL-92.1, SH-SY5Y and HEK293T cell lines; test: Cell viability by Cell-Titer Glo; format: cell-based; details: remaining cell lines, 48 hours
# Method: as §1
# proteasome = system: T2, proteasome; test: Proteasome stimulation in cells monitored with TAS probes; format: cell-based
# T2 construct: endogenous in cells; host or cells: A549 (inferred; the stimulator paragraph says only 'cells')
# Excerpt: In addition to determining if our probes are capable of detecting a decrease in proteasome activity, we were also interested in monitoring molecules which have shown to increase proteasome activity, also known as proteasome stimulators. […] However, this method requires transfection of the MT-fusion protein into cells and analysis by Western blot. Given the promising results with MG-132, we expected our probes to be sensitive enough to detect proteasome stimulation in a similar manner. Using three molecules reported to have various degrees of stimulation, cells were dosed for one hour before washing and adding in each probe. The samples were then monitored for changes in fluorescence and analyzed in the same way as the MG-132 experiment.
# Previously proteasome stimulators had been discovered using a biochemical assay that required purified proteasome. As with all enzyme purifications, the batch to batch activity can vary greatly, leading to inconsistent results. […]
# Using three different stimulating small molecules previously validated using other methods, we found both TAS1 and TAS3 would be suitable to use in such an assay. […] An increase in proteasome activity can be detected after as little as 15 min of incubation time, which can help to increase throughput during a screening campaign. […]
# [3] = system: human purified 20S proteasome; test: Detection of small molecule stimulators with TAS probes using purified 20S proteasome (FIG. 7B-7D); format: biochemical; details: detected with TAS1 and TAS3
# Method: FIG. 7B-7D show the analysis of TAS probes (TAS-1-B, TAS-2-C, TAS-3-D) for their ability to detect different small molecule stimulators using human purified 20S proteasome.
# All three probes were able to detect stimulation is determined by an increase in the % activity over 60 min as compared to the DMSO control. Both TAS1 and TAS3 can differentiate between weak (TRC-1 and TCM-1) and strong proteasome stimulators (MK-886).
# [4] = Human serum stability of library peptides by LC/MS; format: in vitro ADME; details: 20S CP one hour vs 10% human serum 10 min
# Excerpt: This is supported by when we first optimized conditions for treating the peptides with human serum using Tyr-containing peptide.
# Specifically, these were the four Phe derivatives tested. […] Because we were interested in the effects of unnatural amino acids in increasing the specificity of our 20S CP recognition sequence, we moved forward with Phe(4-Cl) and Phe(4-NO2) as Tyr substitutes in our probe structure to create TAS2 and TAS3, respectively (FIG. 1B).
# [5] = 10% v/v human serum in tris buffer; details: up to 60 min
# 20S CP [6] = test: purified 20S CP; details: 37° C., up to two hours
# 20S CP [7] = details: cited from earlier work
# 20S CP [8] = molecular target: T1, 20S CP; test: Fluorescence hydrolysis of probes by purified 20S CP (plate reader); format: biochemical
# Method: The peptide recognition sequence used was based on the commercially available 4-mer AMC probe (FIG. 1A), specifically Leu-Leu-Val-Tyr (SEQ ID NO: 1), to generate TAS1 (FIG. 1B). To determine if TAS1 had any enhanced sensitivity, the two probes were compared under the same conditions with purified 20S CP. Briefly, the probes were incubated in triplicate at 10 and 30 μM with 9 nM […] at 37° C. The change in fluorescence was monitored for two hours and the endpoint values were averaged and graphed for comparison (FIG. 1C). Because the two fluorophores have different excitation and emission wavelengths, the two experiments were performed separately but using the same conditions for the plate reader (i.e. gain, number of flashes, settling time, etc.). […] Since, unlike Suc-LLVY-AMC (SEQ ID NO: 1), TAS1 has the potential to have more than one cleavage site which could result in an increase in fluorescence (on either side of Rh110), we confirmed that the increase in signal is only from the recognition and cleavage of the peptide at the Tyr moiety by analyzing the 30 μM TAS1 samples by LC/MS (FIG. 2).
# With these new peptide sequences in hand, we returned to incorporating the Rh110-peptoid moiety and to compare the cleavage of TAS1-3 with the 20S CP. We incubated all three probes at various concentrations with 9 nM 20S CP and monitored the change in fluorescence using a microplate reader. […] In order to compare the three probes, we fit a linear regression for the points from 10-60 min for 30 μM of each probe to obtain a rate for the change in fluorescence (Table 1). Of the three, TAS1 was hydrolyzed the quickest, although the slope for TAS2 was similar. […] To confirm that the change in fluorescence was due to amide bond cleavage at the expected site on the peptide, we analyzed the samples at a concentration of 30 μM by LC/MS (FIG. 3).
compound,measurement,setting,value
N[C@@H](CCO)C(=O)O [Hse],Peptide cleaved by 20S CP,20S CP [1],~50%
CC(C)C[C@@H](C=O)NC(=O)[C@H](CC(C)C)NC(=O)[C@H](CC(C)C)NC(=O)OCc1ccccc1 [MG-132] (Cbz-Leu-Leu-Leu-aldehyde),Decrease of slope of probe cleavage,A549 cells,≥ 50%
same,pIC50,MM.1R,6.58
same,IC50 (cell viability),[2],higher than that of MM.1R
CC(C)c1ccc2c(c1)c(SC(C)(C)C)c(CC(C)(C)C(=O)O)n2Cc1ccc(Cl)cc1 [MK-886],Increase in proteasome activity vs DMSO,"proteasome; probe TAS1, cells dosed one hour",greater than 3 fold
same,Increase in proteasome activity vs DMSO,"proteasome; probe TAS3, cells dosed one hour",greater than 3 fold
same,Proteasome stimulator strength (% activity over 60 min vs DMSO),[3],strong
CNCC(=O)O [Sar],Cleavage by 20S CP compared to human serum,[4],no significant difference in cleavage; also recorded: near equal cleavage by both
same,Cleavage of peptide by 20S CP (in words),20S CP [1],significantly cleaved
CCCC[C@H](N)C(=O)O [norleucine],Peptide cleaved by 20S CP,20S CP [1],~50%
"D-Phe: library peptide with D-Phe moiety in S1 position replacing Tyr, Ala-Ala dipeptide (LLV[dF]AA-NH2; N-terminus assumed; SMILES CC(C)C[C@H](NC(=O)[C@@H](N)CC(C)C)C(=O)N[C@H](C(=O)N[C@H](Cc1ccccc1)C(=O)N[C@@H](C)C(=O)N[C@@H](C)C(N)=O)C(C)C)",Cleavage of peptide by 20S CP (in words),20S CP [1],did not accept
Leu-Leu-Val-Tyr,cleaved bond,[5],"Leu-Leu, first_seen, 30 min; also recorded: Leu-Val, 60 min"
same,not cleaved,[5],no productive cleavage for either 30 or 60 min
same,cleaved bond,20S CP [6],Tyr-Rh110
same,not cleaved,20S CP [6],only new peaks formed were the expected cleavage products
"Nva: library peptide with norvaline in S1 position replacing Tyr, Ala-Ala dipeptide (LLV[Nva]AA-NH2; N-terminus assumed; SMILES CCC[C@H](NC(=O)[C@@H](NC(=O)[C@H](CC(C)C)NC(=O)[C@@H](N)CC(C)C)C(C)C)C(=O)N[C@@H](C)C(=O)N[C@@H](C)C(N)=O)",Peptide cleaved by 20S CP,20S CP [1],~50%
"Phe(4-Cl): library peptide with Phe(4-Cl) in S1 position replacing Tyr, Ala-Ala dipeptide (LLV[Phe(4-Cl)]AA-NH2; N-terminus assumed; SMILES CC(C)C[C@H](NC(=O)[C@@H](N)CC(C)C)C(=O)N[C@H](C(=O)N[C@@H](Cc1ccc(Cl)cc1)C(=O)N[C@@H](C)C(=O)N[C@@H](C)C(N)=O)C(C)C)",Cleavage by 20S CP compared to human serum,[4],greater than three-times favored cleavage by the 20S CP
"Phe(4-NO2): library peptide with Phe(4-NO2) in S1 position replacing Tyr, Ala-Ala dipeptide (LLV[Phe(4-NO2)]AA-NH2; N-terminus assumed; SMILES CC(C)C[C@H](NC(=O)[C@@H](N)CC(C)C)C(=O)N[C@H](C(=O)N[C@@H](Cc1ccc([N+](=O)[O-])cc1)C(=O)N[C@@H](C)C(=O)N[C@@H](C)C(N)=O)C(C)C)",Cleavage by 20S CP compared to human serum,[4],greater than three-times favored cleavage by the 20S CP
"Phe: library peptide with Phe in S1 position replacing Tyr, Ala-Ala dipeptide (LLVFAA)",Cleavage by 20S CP compared to human serum,[4],greater than three-times favored cleavage by the 20S CP
Suc-LLVY-{AMC},cleaved bond,20S CP [7],Tyr-AMC
"TAS3: Rh110-based peptide/peptoid hybrid probe with Phe(4-NO2) as Tyr substitute (LLV[Phe(4-NO2)]; also: Rh110-based probe, place not given here, peptide/peptoid hybrid)",Rate of Hydrolysis,"20S CP [8]; 30 μM probe, 9 nM purified 20S CP, linear regression 10-60 min",28.1 ΔRFU/min
same,Cleavage products after incubation with 20S CP (LC/MS),"20S CP [8]; 30 μM probe, LC/MS",only produced the expected cleavage products
same,Background fluorescence level,20S CP [8]; purified 20S CP assay,considerably higher level of background
"Thi: library peptide with thienylalanine in S1 position replacing Tyr, Ala-Ala dipeptide (LLV[2Thi]AA-NH2; N-terminus assumed; SMILES CC(C)C[C@H](NC(=O)[C@@H](N)CC(C)C)C(=O)N[C@H](C(=O)N[C@@H](Cc1cccs1)C(=O)N[C@@H](C)C(=O)N[C@@H](C)C(N)=O)C(C)C)",Cleavage by 20S CP compared to human serum,[4],near equal cleavage by both
same,Cleavage of peptide by 20S CP (in words),20S CP [1],highest amount of cleavage
